# From article PMC2580052 (Proteins, 2008)
# Biological target: T1, geranylgeranyl diphosphate synthase (GGPPS) (Saccharomyces cerevisiae, UniProt Q12051)
# T1 sequence (Q12051 1-335): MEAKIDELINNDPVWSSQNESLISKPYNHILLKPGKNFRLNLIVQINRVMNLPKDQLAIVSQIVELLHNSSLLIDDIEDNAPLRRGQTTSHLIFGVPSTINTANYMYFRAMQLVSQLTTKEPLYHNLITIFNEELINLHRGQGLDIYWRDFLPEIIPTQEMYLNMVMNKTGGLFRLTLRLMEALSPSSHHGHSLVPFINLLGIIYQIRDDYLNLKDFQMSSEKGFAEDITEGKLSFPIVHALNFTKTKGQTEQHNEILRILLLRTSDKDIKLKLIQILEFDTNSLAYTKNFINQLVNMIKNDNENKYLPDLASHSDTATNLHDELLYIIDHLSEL
# Experiment: X-ray crystal structure
# Format: binding
structure (smiles),measurement,value
"CN(CCCCc1ccccc1)CCC(O)(P(=O)(O)O)P(=O)(O)O [compound 5, N-[methyl(4-phenylbutyl)]-3-aminopropyl-1-hydroxy-1,1-bisphosphonate]","X-ray crystal structure (2.08 Å, soaked crystals)",We thus crystallized and determined the x-ray crystallographic structure of BPH-210 bound to GGPPS.
